Earlier results, collected in patent US8268549B2, “Method and assay for determining methylation of GAL3 promoter for early diagnosis of prostate cancer” (University of Maryland, Baltimore, priority 2005, dated 2012).

Tested on: galectins

SMILES | relative binding affinity, times less effective than lactose (Lac) (galectins) [times] | ligand quality for chimera galectins (chimera galectins)
O=C[C@H](O)[C@@H](O)[C@@H](O)[C@H](O)CO [D-galactose] | ~200 | –
CC(=O)N[C@@H]1[C@@H](O[C@@H]2O[C@H](CO)[C@H](O)[C@H](O)[C@H]2O)[C@@H](O)[C@@H](CO)O[C@@H]1O [T-disaccharide] | – | good ligand
